Assay results: PubChem BioAssay AID330 (DTP/NCI, 2004)
Values joined by “and” are separate entries in the source; they are usually repeats but may differ in a detail not shown here. Equal values may be shown once. Toxic doses and inconclusive results are not listed. How the source made its calls: active means survival T/C of 150% or more; inactive means T/C below 125% in these data.

Tested on: P388 leukemia ip, CD2F1 mice, survival T/C
Assay: NCI In Vivo Anticancer Drug Screen. Data for tumor model P388 Leukemia (intraperitoneal) in CD2F1 (CDF1) mice
Conditions: endpoint: median survival time, higher = longer survival
Outline: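 Mice carrying the transplanted tumor received test compound or vehicle. Survival was recorded in each group, and the value is the treated-group measurement divided by that of the vehicle-treated control group.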

[1] = dose: 50.0 mg/kg/injection, schedule: Q01DX009 (ip), vehicle: Klucel (hydroxypropylcellulose) (HPC)
[2] = dose: 100.0 mg/kg/injection, schedule: Q01DX009 (ip), vehicle: Klucel (hydroxypropylcellulose) (HPC)
[3] = dose: 200.0 mg/kg/injection, schedule: Q01DX009 (ip), vehicle: Klucel (hydroxypropylcellulose) (HPC)
[4] = dose: 50.0 mg/kg/injection, schedule: Q01DX009 (ip), vehicle: saline with Tween-80
[5] = dose: 100.0 mg/kg/injection, schedule: Q01DX009 (ip), vehicle: saline with Tween-80
[6] = dose: 200.0 mg/kg/injection, schedule: Q01DX009 (ip), vehicle: saline with Tween-80
[7] = dose: 50.0 mg/kg/injection, schedule: Q01DX005 (ip), vehicle: saline
[8] = dose: 50.0 mg/kg/injection, schedule: Q01DX005 (ip), vehicle: Klucel (hydroxypropylcellulose) (HPC)

Measured: T/C

Cc1cc(Cl)ccc1OCC1OC(=O)C(C)(C)O1 (centres undefined)
inactive: [1] 100 % of control | [2] 100 % of control | [3] 101 % of control

Cc1c[n+]2ccccc2n1C
inactive: dose: 1.56 mg/kg/injection, schedule: Q01DX009 (ip), vehicle: saline 98 % of control | dose: 3.13 mg/kg/injection, schedule: Q01DX009 (ip), vehicle: saline 95 % of control | dose: 6.25 mg/kg/injection, schedule: Q01DX009 (ip), vehicle: saline 89 % of control

CC(=O)NC(C=O)OCC=O (centres undefined)
inactive: dose: 44.0 mg/kg/injection, schedule: Q01DX005 (ip), vehicle: water 120 % of control | dose: 66.0 mg/kg/injection, schedule: Q01DX005 (ip), vehicle: water 121 % of control | dose: 150.0 mg/kg/injection, schedule: Q01DX005 (ip), vehicle: water 110 % of control

CCOP(=O)(O)OCC.[Y]
inactive: dose: 100.0 mg/kg/injection, schedule: Q04DX003 (ip), vehicle: saline with Tween-80 93 % of control | dose: 200.0 mg/kg/injection, schedule: Q04DX003 (ip), vehicle: saline with Tween-80 100 % of control | dose: 400.0 mg/kg/injection, schedule: Q04DX003 (ip), vehicle: saline with Tween-80 111 % of control

CC(=O)CC(=O)CCCCC(=O)O
inactive: [4] 112 % of control | [5] 112 % of control | [6] 104 % of control

CCC(C)Sc1nc2ccc(NC(=O)/C=C/C(=O)O)cc2s1 (centres undefined)
inactive: dose: 100.0 mg/kg/injection, schedule: Q04DX003 (ip), vehicle: Klucel (hydroxypropylcellulose) (HPC) 95 % of control | dose: 200.0 mg/kg/injection, schedule: Q04DX003 (ip), vehicle: Klucel (hydroxypropylcellulose) (HPC) 100 % of control

O=C(CCCl)Nc1c(Cl)cccc1Cl
inactive: dose: 50.0 mg/kg/injection, schedule: Q01DX005 (ip), vehicle: saline with Tween-80 96 % of control | dose: 100.0 mg/kg/injection, schedule: Q01DX005 (ip), vehicle: saline with Tween-80 99 % of control | dose: 200.0 mg/kg/injection, schedule: Q01DX005 (ip), vehicle: saline with Tween-80 96 % of control

FC(F)(F)c1nc(SCc2ccc(Cl)cc2)n[nH]1
inactive: dose: 30.0 mg/kg/injection, schedule: Q01DX005 (ip), vehicle: Klucel (hydroxypropylcellulose) (HPC) 103 % of control | dose: 60.0 mg/kg/injection, schedule: Q01DX005 (ip), vehicle: Klucel (hydroxypropylcellulose) (HPC) 96 % of control | dose: 120.0 mg/kg/injection, schedule: Q01DX005 (ip), vehicle: Klucel (hydroxypropylcellulose) (HPC) 98 % of control | dose: 240.0 mg/kg/injection, schedule: Q01DX005 (ip), vehicle: Klucel (hydroxypropylcellulose) (HPC) 102 % of control

CNC(=O)OCc1c(COC(=O)NC)c(-c2ccccc2)n(C)c1C
inactive: dose: 50.0 mg/kg/injection, schedule: Q01DX009 (ip), vehicle: distilled water + Tween-80 90 % of control

CC(=O)Oc1ccc[nH]c1=S
inactive: dose: 12.5 mg/kg/injection, schedule: Q01DX009 (ip), vehicle: saline 101 % of control and 103 % of control | dose: 25.0 mg/kg/injection, schedule: Q01DX009 (ip), vehicle: saline 104 % of control and 106 % of control | dose: 50.0 mg/kg/injection, schedule: Q01DX009 (ip), vehicle: saline 99 % of control and 102 % of control | dose: 100.0 mg/kg/injection, schedule: Q01DX008 (ip), vehicle: saline 104 % of control and 106 % of control | dose: 100.0 mg/kg/injection, schedule: Q01DX009 (ip), vehicle: saline 100 % of control and 104 % of control | dose: 200.0 mg/kg/injection, schedule: Q01DX008 (ip), vehicle: saline 105 % of control and 110 % of control | dose: 200.0 mg/kg/injection, schedule: Q01DX009 (ip), vehicle: saline 109 % of control and 113 % of control | dose: 400.0 mg/kg/injection, schedule: Q01DX008 (ip), vehicle: saline 120 % of control | dose: 400.0 mg/kg/injection, schedule: Q01DX009 (ip), vehicle: saline 96 % of control

COc1ccc(-c2c(S(C)(=O)=O)nsc2S(C)(=O)=O)cc1
inactive: [1] 105 % of control | [2] 106 % of control | [3] 97 % of control

[Cl][Pd][Cl].[NH-]C(CO)C(=O)O (centres undefined)
inactive: dose: 12.5 mg/kg/injection, schedule: Q01DX005 (ip), vehicle: saline 94 % of control | dose: 25.0 mg/kg/injection, schedule: Q01DX005 (ip), vehicle: saline 102 % of control | [7] 106 % of control and 98 % of control

O=C1C=CC(=O)N1c1ccc([N+](=O)[O-])cc1
inactive: dose: 12.5 mg/kg/injection, schedule: Q01DX009 (ip), vehicle: saline with Tween-80 101 % of control | dose: 25.0 mg/kg/injection, schedule: Q01DX009 (ip), vehicle: saline with Tween-80 101 % of control | [4] 99 % of control

Cc1ccc(C(C)C)c2c1CN(CCCN1COc3c(C(C)C)ccc(C)c3C1)CO2
inactive: dose: 60.0 mg/kg/injection, schedule: Q01DX005 (ip), vehicle: saline with Tween-80 91 % of control | dose: 120.0 mg/kg/injection, schedule: Q01DX005 (ip), vehicle: saline with Tween-80 86 % of control

CN1C(=O)C2C=CC1c1ccccc12 (centres undefined)
inactive: dose: 100.0 mg/kg/injection, schedule: Q04DX003 (ip), vehicle: saline 104 % of control | dose: 200.0 mg/kg/injection, schedule: Q04DX003 (ip), vehicle: saline 106 % of control | dose: 400.0 mg/kg/injection, schedule: Q04DX003 (ip), vehicle: saline 99 % of control

C=CC(C)C(O)C(=O)OC (centres undefined)
inactive: dose: 100.0 mg/kg/injection, schedule: Q01DX001 (ip), vehicle: saline with Tween-80 98 % of control | dose: 200.0 mg/kg/injection, schedule: Q01DX001 (ip), vehicle: saline with Tween-80 110 % of control | dose: 400.0 mg/kg/injection, schedule: Q01DX001 (ip), vehicle: saline with Tween-80 103 % of control

Nc1nnn(-c2ccccc2)n1
inactive: dose: 100.0 mg/kg/injection, schedule: Q01DX001 (ip), vehicle: Klucel (hydroxypropylcellulose) (HPC) 102 % of control | dose: 200.0 mg/kg/injection, schedule: Q01DX001 (ip), vehicle: Klucel (hydroxypropylcellulose) (HPC) 101 % of control | dose: 400.0 mg/kg/injection, schedule: Q01DX001 (ip), vehicle: Klucel (hydroxypropylcellulose) (HPC) 102 % of control

C(NC=C1c2ccccc2-c2ccccc21)=C1c2ccccc2-c2ccccc21
inactive: [8] 100 % of control | dose: 100.0 mg/kg/injection, schedule: Q01DX005 (ip), vehicle: Klucel (hydroxypropylcellulose) (HPC) 92 % of control | dose: 200.0 mg/kg/injection, schedule: Q01DX005 (ip), vehicle: Klucel (hydroxypropylcellulose) (HPC) 94 % of control

O=C1C=C(c2ccccc2)C(c2ccccc2)C1 (centres undefined)
inactive: [4] 89 % of control | [5] 93 % of control | [6] 93 % of control | dose: 400.0 mg/kg/injection, schedule: Q01DX009 (ip), vehicle: saline with Tween-80 93 % of control

CCC1CCCCN1C(=S)N/N=C(\C)c1ccccn1 (centres undefined)
inactive: dose: 12.5 mg/kg/injection, schedule: Q04DX003 (ip), vehicle: saline with Tween-80 106 % of control | dose: 25.0 mg/kg/injection, schedule: Q04DX003 (ip), vehicle: saline with Tween-80 108 % of control and 115 % of control | dose: 50.0 mg/kg/injection, schedule: Q04DX003 (ip), vehicle: saline with Tween-80 115 % of control

CCNc1cc(N)[n+](CC)c2n[nH]c(N)c12
inactive: [7] 112 % of control | dose: 100.0 mg/kg/injection, schedule: Q01DX005 (ip), vehicle: saline 111 % of control

CC(C)=CCC(OC1OC(CO)C(O)C(O)C1N)C1=CC(=O)c2c(O)ccc(O)c2C1=O (centres undefined)
inactive: dose: 2.5 mg/kg/injection, schedule: Q04DX002 (ip), vehicle: saline 103 % of control | dose: 5.0 mg/kg/injection, schedule: Q04DX002 (ip), vehicle: saline 111 % of control | dose: 10.0 mg/kg/injection, schedule: Q04DX002 (ip), vehicle: saline 114 % of control | dose: 20.0 mg/kg/injection, schedule: Q04DX002 (ip), vehicle: saline 113 % of control | dose: 40.0 mg/kg/injection, schedule: Q04DX002 (ip), vehicle: saline 111 % of control

CCOc1ccc(C2=C(O)/C(=C(\C(=O)Nc3nccs3)c3ccc(OCC)cc3)OC2=O)cc1
inactive: dose: 12.5 mg/kg/injection, schedule: Q01DX005 (ip), vehicle: Klucel (hydroxypropylcellulose) (HPC) 109 % of control | dose: 25.0 mg/kg/injection, schedule: Q01DX005 (ip), vehicle: Klucel (hydroxypropylcellulose) (HPC) 104 % of control | [8] 100 % of control and 104 % of control
